These results are taken from ChEMBL document CHEMBL4190197, “Nepetaefolins A-J, Cytotoxic Chinane and Abietane Diterpenoids from Caryopteris nepetaefolia” (J Nat Prod, 2017).

Holding throughout (format): functional
Holding throughout (conditions): Homo sapiens, 144 h

Experiment [1] in a line: Antiproliferative activity against non-small cell lung cancer patient-derived LUPF045 cells after 6 days by ATP-TCA method.
The nature of experiment [2]: Antiproliferative activity against ovarian cancer patient-derived OVPF038 cells after 6 days by ATP-TCA method.
Experiment [3] is described as follows: Antiproliferative activity against ovarian cancer patient-derived OVPF008 cells after 6 days by ATP-TCA method.
The nature of experiment [4]: Antiproliferative activity against non-small cell lung cancer patient-derived LUPF003 cells after 6 days by ATP-TCA method.

As to `CC(C)[C@@]12C=C3CC[C@H]4[C@@](C)(CO)[C@@H](O)CC[C@]4(C)[C@]3(CC1)OO2`, the IC50 – broadly, the midpoint of a concentration-inhibition curve – was 49.7 µM in experiment [1], greater than 50 µM in experiment [2] and greater than 50 µM in experiment [3].

Consider `C=C(C)c1ccc2c(c1)CC[C@H]1C3=C(CC[C@]21C)C(=O)OC3`, for which the IC50 in experiment [1] came to 9 µM; in experiment [4], 11.7 µM; in experiment [2] it was 19.3 µM; in experiment [3], 16.8 µM.

Regarding `CC(C)[C@]12C=C3CC[C@H]4[C@@](C)(CO)[C@@H](O)CC[C@]4(C)[C@]3(CC1)OO2`, the IC50 in experiment [1] is greater than 50 µM.

As for `CC(=O)O[C@H]1C(=O)[C@@]2(C)[C@H]([C@H](OC(=O)c3ccccc3)[C@]3(O)C[C@H](OC(=O)[C@H](O)[C@@H](NC(=O)c4ccccc4)c4ccccc4)C(C)=C1C3(C)C)[C@]1(OC(C)=O)CO[C@@H]1C[C@@H]2O` [PACLITAXEL], the IC50 was found to be 11.2 µM in experiment [1], 11 µM in experiment [4], 1.4 µM in experiment [2] and 1.1 µM in experiment [3].

As for `CC(C)(O)c1cc2c(cc1O)[C@@]1(C)CCC3=C(COC3=O)[C@@H]1CC2`, the IC50 in experiment [4] was 44.7 µM; in experiment [2] it was greater than 50 µM; in experiment [3], greater than 50 µM.

As for `C=C(C)c1cc2c(cc1O)[C@@]1(C)CCC3=C(COC3=O)[C@@H]1CC2`, the IC50 in experiment [1] was 49.6 µM; in experiment [4], 43.8 µM; in experiment [2] it was greater than 50 µM.

As for `CC(=O)OC[C@@]1(C)[C@@H](O)CC[C@]2(C)c3ccc(C(C)C)cc3CC[C@@H]12`, the IC50 in experiment [1] was found to be 6.3 µM; in experiment [4], 31.5 µM; in experiment [2], 12.7 µM; in experiment [3], 7.9 µM.

Turning to `CC(C)[C@]12C=C3CC[C@@H]4[C@](C)(CCC[C@]4(C)C(=O)O)[C@]3(CC1)OO2`, the IC50 in experiment [1] was greater than 50 µM.
